Reference: ChEMBL document CHEMBL4819006, “1,4,6-Trisubstituted imidazo[4,5-c]pyridines as inhibitors of Bruton's tyrosine kinase” (Eur J Med Chem, 2021)
The source made the active and inactive calls. No cut-off for these calls is given here.

What was measured:
[1] = target: Tyrosine-protein kinase SYK (Homo sapiens) (UniProt P43405); assay: Inhibition of human recombinant GST-tagged SYK (M1 to N635 residues) assessed as residual activity using poly (Glu,Tyr) as substrate in presence of ATP and Ci(gamma33-P) ATP at 1 uM measured by microplate reader assay
[2] = target: T1, Tyrosine-protein kinase BTK (Homo sapiens, UniProt Q06187); assay: Inhibition of human BTK using poly (Glu,Tyr) as substrate in presence of ATP and Ci(gamma33-P) ATP measured by microplate reader assay
T1 sequence (Q06187 whole entry, the tested form may be a part): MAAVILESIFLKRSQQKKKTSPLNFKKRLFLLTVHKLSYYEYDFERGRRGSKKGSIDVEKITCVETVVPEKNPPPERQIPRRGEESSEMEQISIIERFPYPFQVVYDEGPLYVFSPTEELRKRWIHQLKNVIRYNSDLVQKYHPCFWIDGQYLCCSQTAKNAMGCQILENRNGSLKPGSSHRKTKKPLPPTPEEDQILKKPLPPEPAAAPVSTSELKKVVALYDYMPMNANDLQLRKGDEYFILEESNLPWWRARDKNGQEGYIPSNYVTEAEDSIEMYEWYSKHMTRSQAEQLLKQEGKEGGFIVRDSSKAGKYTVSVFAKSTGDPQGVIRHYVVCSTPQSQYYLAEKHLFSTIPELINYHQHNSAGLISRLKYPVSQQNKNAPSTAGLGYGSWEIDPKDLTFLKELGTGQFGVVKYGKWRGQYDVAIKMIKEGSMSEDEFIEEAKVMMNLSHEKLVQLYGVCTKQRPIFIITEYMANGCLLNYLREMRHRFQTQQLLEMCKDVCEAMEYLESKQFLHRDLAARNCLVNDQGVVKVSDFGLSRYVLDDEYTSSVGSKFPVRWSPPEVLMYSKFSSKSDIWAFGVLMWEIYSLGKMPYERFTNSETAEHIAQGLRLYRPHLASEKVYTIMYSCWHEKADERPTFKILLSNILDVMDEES

[3] = target: Receptor-type tyrosine-protein kinase FLT3 (Homo sapiens) (UniProt P36888); assay: Inhibition of human recombinant […] N-terminal GST-tagged FLT3 (R571 to S993 residues) assessed as residual activity using poly (Ala, Glu, Lys, Tyr) hydrobromide as substrate in presence of ATP and Ci(gamma33-P) ATP at 1 uM measured by microplate reader assay
Receptor-type tyrosine-protein kinase FLT3 (Homo sapiens), sequence (P36888 whole entry, the tested form may be a part): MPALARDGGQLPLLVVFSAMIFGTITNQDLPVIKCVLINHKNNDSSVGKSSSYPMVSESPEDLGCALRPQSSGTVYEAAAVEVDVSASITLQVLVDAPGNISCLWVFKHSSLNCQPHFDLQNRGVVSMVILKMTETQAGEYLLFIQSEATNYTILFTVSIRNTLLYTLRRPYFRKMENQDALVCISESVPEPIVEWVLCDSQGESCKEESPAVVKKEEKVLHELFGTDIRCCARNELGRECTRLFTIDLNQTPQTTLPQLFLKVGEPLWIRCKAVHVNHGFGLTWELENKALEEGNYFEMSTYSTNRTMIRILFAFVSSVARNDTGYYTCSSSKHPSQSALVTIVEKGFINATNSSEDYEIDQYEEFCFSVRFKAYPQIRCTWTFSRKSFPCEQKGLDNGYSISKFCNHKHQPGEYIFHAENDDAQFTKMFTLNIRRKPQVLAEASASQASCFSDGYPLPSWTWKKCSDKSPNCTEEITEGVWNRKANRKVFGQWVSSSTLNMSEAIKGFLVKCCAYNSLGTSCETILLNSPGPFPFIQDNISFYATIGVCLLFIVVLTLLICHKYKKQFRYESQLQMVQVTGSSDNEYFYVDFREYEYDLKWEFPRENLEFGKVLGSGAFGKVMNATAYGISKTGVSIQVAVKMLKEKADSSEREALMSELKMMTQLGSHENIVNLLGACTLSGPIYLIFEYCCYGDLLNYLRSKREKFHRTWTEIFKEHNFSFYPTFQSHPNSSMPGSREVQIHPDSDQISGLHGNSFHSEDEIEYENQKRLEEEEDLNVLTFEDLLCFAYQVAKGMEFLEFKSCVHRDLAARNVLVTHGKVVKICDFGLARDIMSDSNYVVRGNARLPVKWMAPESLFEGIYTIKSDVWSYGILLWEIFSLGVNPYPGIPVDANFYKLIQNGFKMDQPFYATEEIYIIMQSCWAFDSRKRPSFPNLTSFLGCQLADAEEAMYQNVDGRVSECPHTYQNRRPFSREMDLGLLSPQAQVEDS

[4] = system: Ramos; assay: Growth inhibition of human Ramos cells assessed as inhibition of cell growth measured after 72 hrs by resazurin dye based assay; assay type: functional
[5] = system: Rec1; assay: Growth inhibition of human REC1 cells assessed as inhibition of cell growth measured after 72 hrs by resazurin dye based assay; assay type: functional
[6] = system: K562; assay: Growth inhibition of human K562 cells assessed as inhibition of cell growth measured after 72 hrs by resazurin dye based assay; assay type: functional
[7] = target: Tyrosine-protein kinase ABL1 (Homo sapiens) (UniProt P00519); assay: Inhibition of Abl (unknown origin) expressed in Sf9 cells assessed as residual activity using GGEAIYAAPFKK peptide as substrate in presence of ATP and Ci(gamma33-P)ATP at 1 uM measured by microplate reader
Tyrosine-protein kinase ABL1 (Homo sapiens), sequence (P00519 whole entry): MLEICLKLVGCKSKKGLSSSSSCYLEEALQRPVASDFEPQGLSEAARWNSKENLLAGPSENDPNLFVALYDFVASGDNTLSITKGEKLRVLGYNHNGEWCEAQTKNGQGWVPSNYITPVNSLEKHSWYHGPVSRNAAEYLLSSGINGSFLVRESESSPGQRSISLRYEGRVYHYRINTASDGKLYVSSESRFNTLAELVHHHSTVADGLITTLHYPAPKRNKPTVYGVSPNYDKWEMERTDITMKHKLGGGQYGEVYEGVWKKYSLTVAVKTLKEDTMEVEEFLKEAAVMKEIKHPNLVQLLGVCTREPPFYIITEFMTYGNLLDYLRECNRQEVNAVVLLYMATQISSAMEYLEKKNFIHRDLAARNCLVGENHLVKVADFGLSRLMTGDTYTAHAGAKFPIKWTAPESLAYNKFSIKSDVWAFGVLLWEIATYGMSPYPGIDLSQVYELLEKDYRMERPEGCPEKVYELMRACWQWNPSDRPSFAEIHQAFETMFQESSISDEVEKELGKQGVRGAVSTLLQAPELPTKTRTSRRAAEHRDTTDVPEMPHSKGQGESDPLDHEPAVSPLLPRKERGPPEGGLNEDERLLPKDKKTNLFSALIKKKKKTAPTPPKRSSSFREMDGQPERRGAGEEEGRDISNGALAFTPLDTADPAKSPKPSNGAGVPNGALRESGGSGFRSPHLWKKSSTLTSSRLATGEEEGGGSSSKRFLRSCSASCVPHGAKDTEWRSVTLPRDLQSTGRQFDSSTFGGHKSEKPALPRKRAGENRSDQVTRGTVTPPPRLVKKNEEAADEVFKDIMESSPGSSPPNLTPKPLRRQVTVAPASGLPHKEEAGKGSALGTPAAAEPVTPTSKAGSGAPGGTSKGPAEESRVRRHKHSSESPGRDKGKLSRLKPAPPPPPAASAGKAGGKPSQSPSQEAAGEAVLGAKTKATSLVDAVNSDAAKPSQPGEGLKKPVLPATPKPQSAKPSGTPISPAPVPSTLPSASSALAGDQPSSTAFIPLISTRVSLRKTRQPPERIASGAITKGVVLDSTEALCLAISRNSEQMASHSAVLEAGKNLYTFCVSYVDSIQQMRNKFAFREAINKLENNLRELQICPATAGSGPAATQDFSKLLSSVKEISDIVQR

[8] = target: T1, Tyrosine-protein kinase BTK; assay: Inhibition of human BTK assessed as residual activity using poly (Glu,Tyr) as substrate in presence of ATP and Ci(gamma33-P) ATP at 1 uM measured by microplate reader assay
[9] = Growth inhibition of human patient derived UPF7U cells assessed as inhibition of cell growth measured after 72 hrs by resazurin dye based assay; assay type: functional
[10] = Growth inhibition of human patient derived UPF1H cells assessed as inhibition of cell growth measured after 72 hrs by resazurin dye based assay; assay type: functional
[11] = target: Cyclin-dependent kinase 2 (Homo sapiens) (UniProt P24941); assay: Inhibition of GST-tagged CDK2/cyclinE (unknown origin) expressed in Sf9 cells assessed as residual activity using histone H1 as substrate in presence of ATP and Ci(gamma33-P) ATP at 1 uM measured by microplate reader assay
[12] = target: Tyrosine-protein kinase Fyn (Homo sapiens) (UniProt P06241); assay: Inhibition of human recombinant full length GST-tagged FYN (M1 to L537 residues) assessed as residual activity using poly (Glu,Tyr) as substrate in presence of ATP and Ci(gamma33-P) ATP at 1 uM measured by microplate reader assay
Tyrosine-protein kinase Fyn (Homo sapiens), sequence (P06241 2-537 limits assumed): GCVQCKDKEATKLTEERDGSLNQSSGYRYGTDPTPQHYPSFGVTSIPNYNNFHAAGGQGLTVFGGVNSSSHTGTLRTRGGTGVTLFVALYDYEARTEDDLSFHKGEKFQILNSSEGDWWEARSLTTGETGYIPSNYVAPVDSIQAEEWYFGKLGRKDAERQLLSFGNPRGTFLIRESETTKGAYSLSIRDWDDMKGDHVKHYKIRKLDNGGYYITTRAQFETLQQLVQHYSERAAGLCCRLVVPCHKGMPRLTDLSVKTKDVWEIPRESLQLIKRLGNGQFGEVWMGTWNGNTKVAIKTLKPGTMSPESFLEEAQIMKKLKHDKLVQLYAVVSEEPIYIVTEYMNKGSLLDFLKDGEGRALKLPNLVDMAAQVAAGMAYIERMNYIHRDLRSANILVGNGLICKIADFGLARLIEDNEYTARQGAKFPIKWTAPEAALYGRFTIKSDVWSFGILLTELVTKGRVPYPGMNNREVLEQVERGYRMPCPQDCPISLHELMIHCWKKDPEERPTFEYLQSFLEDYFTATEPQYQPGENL

[13] = target: T1, Tyrosine-protein kinase BTK; assay: Inhibition of BTK in human Ramos cells assessed as reduction of IgM stimulated BTK ([…]) phosphorylation at 1 to 5 uM measured after 24 hrs by western blot assay; assay type: cell-based; conditions: dose 1-5 µM
[14] = target: T1, Tyrosine-protein kinase BTK; assay: Inhibition of BTK in human Ramos cells assessed as reduction of IgM stimulated PLCgamma2 (Y1217) phosphorylation at 1 to 5 uM measured after 24 hrs by western blot assay; assay type: cell-based; conditions: dose 1-5 µM
[15] = target: Mitogen-activated protein kinase; ERK1/ERK2 (Homo sapiens) (UniProt P27361+P28482); assay: Inhibition of ERK1/2 in human Ramos cells assessed as reduction in ERK1/2 phosphorylation at 1 to 5 uM measured after 24 hrs by western blot assay; assay type: cell-based; conditions: dose 1-5 µM
Mitogen-activated protein kinase; ERK1/ERK2 (Homo sapiens), sequence (P27361 whole entry, looked up): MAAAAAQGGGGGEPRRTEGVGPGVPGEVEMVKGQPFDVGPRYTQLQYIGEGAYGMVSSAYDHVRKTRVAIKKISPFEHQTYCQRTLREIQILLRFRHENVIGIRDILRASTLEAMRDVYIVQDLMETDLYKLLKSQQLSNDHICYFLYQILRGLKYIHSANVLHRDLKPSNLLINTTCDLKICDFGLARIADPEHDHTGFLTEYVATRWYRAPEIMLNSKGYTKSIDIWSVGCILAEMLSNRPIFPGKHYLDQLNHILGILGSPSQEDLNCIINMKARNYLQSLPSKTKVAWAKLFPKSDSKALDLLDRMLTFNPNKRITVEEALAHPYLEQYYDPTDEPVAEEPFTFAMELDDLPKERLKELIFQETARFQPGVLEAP
Mitogen-activated protein kinase; ERK1/ERK2 (Homo sapiens), sequence (P28482 whole entry, looked up): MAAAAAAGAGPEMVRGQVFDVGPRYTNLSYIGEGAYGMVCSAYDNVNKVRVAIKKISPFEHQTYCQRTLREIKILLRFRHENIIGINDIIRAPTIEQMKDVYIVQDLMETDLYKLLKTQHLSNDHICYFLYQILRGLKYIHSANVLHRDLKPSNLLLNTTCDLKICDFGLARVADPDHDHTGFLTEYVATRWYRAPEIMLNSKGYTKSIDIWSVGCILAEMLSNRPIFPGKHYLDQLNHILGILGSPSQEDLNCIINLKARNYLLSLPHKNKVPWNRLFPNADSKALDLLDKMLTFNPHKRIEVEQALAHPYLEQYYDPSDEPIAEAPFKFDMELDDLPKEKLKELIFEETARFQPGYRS

[16] = target: T1, Tyrosine-protein kinase BTK; assay: Inhibition of BTK in human Ramos cells assessed as reduction of IgM stimulated PLCgamma1 (Y783) phosphorylation at 0.125 to 1 uM measured after 24 hrs by western blot assay relative to Ibrutinib; assay type: cell-based; conditions: dose 0.125-1 µM
[17] = target: T1, Tyrosine-protein kinase BTK; assay: Inhibition of BTK in human UPF7U cells assessed as reduction of IgM stimulated PLCgamma2 (Y1217) phosphorylation at 0.125 to 1 uM measured after 24 hrs by western blot assay relative to Ibrutinib; assay type: cell-based; conditions: dose 0.125-1 µM
[18] = target: T1, Tyrosine-protein kinase BTK; assay: Inhibition of BTK in human Ramos cells assessed as reduction of IgM stimulated BTK phosphorylation measured after 24 hrs by western blot assay; assay type: cell-based; conditions: dose 0.125-1 µM
[19] = target: Proto-oncogene tyrosine-protein kinase Src (Homo sapiens) (UniProt P12931); assay: Inhibition of recombinant SRC (unknown origin) assessed as residual activity at 1 uM
Proto-oncogene tyrosine-protein kinase Src (Homo sapiens), sequence (P12931 2-536 limits assumed): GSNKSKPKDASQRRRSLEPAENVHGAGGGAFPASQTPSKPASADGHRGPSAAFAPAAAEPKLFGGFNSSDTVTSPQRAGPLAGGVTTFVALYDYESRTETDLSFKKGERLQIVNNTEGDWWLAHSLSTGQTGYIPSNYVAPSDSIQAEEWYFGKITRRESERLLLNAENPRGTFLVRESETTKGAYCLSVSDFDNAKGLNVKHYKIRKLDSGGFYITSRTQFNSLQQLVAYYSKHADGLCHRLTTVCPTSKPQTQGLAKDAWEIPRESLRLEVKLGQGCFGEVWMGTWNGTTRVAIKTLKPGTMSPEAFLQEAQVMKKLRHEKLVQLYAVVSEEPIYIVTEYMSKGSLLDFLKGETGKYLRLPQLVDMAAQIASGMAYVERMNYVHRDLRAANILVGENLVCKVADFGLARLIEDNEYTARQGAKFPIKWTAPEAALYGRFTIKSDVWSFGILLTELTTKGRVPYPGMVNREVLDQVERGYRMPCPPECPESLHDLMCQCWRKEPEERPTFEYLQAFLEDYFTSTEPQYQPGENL

[20] = target: Tyrosine-protein kinase Lck (Homo sapiens) (UniProt P06239); assay: Inhibition of recombinant LCK (unknown origin) assessed as residual activity at 1 uM
[21] = target: T1, Tyrosine-protein kinase BTK; assay: Inhibition of BTK in human UPF7U cells assessed as reduction of IgM stimulated PLCgamma1 (Y783) phosphorylation at 0.125 to 1 uM measured after 24 hrs by western blot assay relative to Ibrutinib; assay type: cell-based; conditions: dose 0.125-1 µM
[22] = target: T1, Tyrosine-protein kinase BTK; assay: Inhibition of BTK in human Ramos cells assessed as reduction of IgM stimulated PLCgamma2 (Y1217) phosphorylation at 0.125 to 1 uM measured after 24 hrs by western blot assay relative to Ibrutinib; assay type: cell-based; conditions: dose 0.125-1 µM
[23] = target: T1, Tyrosine-protein kinase BTK; assay: Inhibition of BTK in human UPF7U cells assessed as reduction of IgM stimulated BTK phosphorylation measured after 24 hrs by western blot assay; assay type: cell-based; conditions: dose 0.125-1 µM

SMILES | Activity [1] [%] | IC50 [2] [µM] | Activity [3] [%] | GI50 ([4]; Homo sapiens, Ramos) [µM] | GI50 ([5]; Homo sapiens, Rec1) [µM] | GI50 ([6]; Homo sapiens, K562) [µM] | Activity [7] [%] | Activity [8] [%] | GI50 ([9]; Homo sapiens, UPF7U) [µM] | GI50 ([10]; Homo sapiens, UPF1H) [µM] | Activity [11] [%] | Activity [12] [%] | also measured
CC(=O)Nc1cccc(-c2cc3[nH]cnc3c(Nc3ccc(C(=O)N4CCOCC4)cc3)n2)c1C | 61.7 | 0.545 | 95 | > 50 | > 50 | > 50 | 52.4 | 38.8 | > 50 | 35.1 | 94.5 | 84 | –
Cc1c(NC(=O)C2CCCCC2)cccc1-c1cc2[nH]cnc2c(Nc2ccc(C(=O)N3CCOCC3)cc2)n1 | 43.3 | 0.932 | 75.7 | 47.2 | > 50 | 49 | – | 61.5 | > 50 | 44.1 | 93 | 95.1 | inhibition [13]: Active; inhibition [14]: Active; inhibition [15]: inactive
Cc1c(NC(=O)c2cccnc2)cccc1-c1cc2[nH]cnc2c(Nc2ccc(C(=O)N3CCOCC3)cc2)n1 | 62.3 | 0.264 | 76.2 | > 50 | > 50 | > 50 | 69.1 | 25.3 | > 50 | > 50 | 89 | 75.2 | inhibition [13]: Active; inhibition [14]: Active; inhibition [15]: inactive
Cc1cccc(-c2cc(Nc3ccc(C(=O)N4CCOCC4)cc3)c3nc[nH]c3n2)c1C | – | – | – | > 50 | > 50 | > 50 | – | – | > 50 | > 50 | – | – | –
Cc1c(NC(=O)c2c[nH]cn2)cccc1-c1cc2[nH]cnc2c(Nc2ccc(C(=O)N3CCOCC3)cc2)n1 | 76.5 | 0.079 | 68.3 | > 50 | > 50 | > 50 | 80.8 | 27.2 | > 50 | > 25 | 94.6 | 36.6 | –
COc1ccc(Cn2cnc3c(Nc4ccc(C(=O)N5CCOCC5)cc4)nc(-c4cccc(NC(=O)c5ccc(C(C)(C)C)cc5)c4C)cc32)cc1 | 82.3 | > 10 | 42.7 | > 50 | > 50 | > 50 | 95.1 | 71.2 | > 50 | > 50 | 96.7 | 73.9 | –
Cc1cccc(-c2cc3[nH]cnc3c(Nc3ccc(C(=O)N4CCOCC4)cc3)n2)c1C | – | – | – | 45.8 | 42 | > 50 | – | – | > 50 | > 50 | – | – | inhibition [15]: inactive
Cc1c(NC(=O)c2ccccn2)cccc1-c1cc2[nH]cnc2c(Nc2ccc(C(=O)N3CCOCC3)cc2)n1 | 72.5 | 0.166 | > 100 | > 12.5 | > 12.5 | > 12.5 | 56.8 | 27.4 | > 12.5 | > 12.5 | 93.7 | 78.8 | –
Cc1c(NC(=O)c2nc3ccccc3[nH]2)cccc1-c1cc2[nH]cnc2c(Nc2ccc(C(=O)N3CCOCC3)cc2)n1 | 92 | 0.035 | 53.9 | 10.1 | > 12.5 | 10 | 78 | 20.9 | > 12.5 | > 12.5 | 97.9 | 64.7 | inhibition [13]: Active; inhibition [14]: Active
CC(C)(C)c1ccc(C(=O)Nc2cccc(-c3cc4[nH]cnc4c(Nc4ccc(C(=O)N5CCOCC5)cc4)n3)c2)cc1 | 71.4 | 0.027 | > 100 | 1.2 | 6 | 2.3 | 95.9 | 14.7 | 5.5 | 1 | 98.7 | 86.4 | inhibition [16]: Active; inhibition [17]: Active; inhibition [18]: Dose-Dependent Effect; inhibition [19]: Active; inhibition [20]: Active; inhibition [21]: Active; inhibition [22]: Active; inhibition [23]: Dose-Dependent Effect
Cc1c(NC(=O)c2ncc[nH]2)cccc1-c1cc2[nH]cnc2c(Nc2ccc(C(=O)N3CCOCC3)cc2)n1 | 66 | 0.041 | 33.3 | > 25 | > 25 | > 25 | 39.4 | 24.2 | > 25 | > 12.5 | 93.6 | 56.3 | –
Cc1c(NC(=O)c2cccc(C(C)(C)C)c2)cccc1-c1cc2[nH]cnc2c(Nc2ccc(C(=O)N3CCOCC3)cc2)n1 | 74.1 | 0.709 | 64.9 | 18.6 | 64 | 60.1 | > 100 | 43.3 | > 50 | 40.3 | 95.3 | 81 | –
Cc1c(NC(=O)c2ccc(C(C)(C)C)cc2)cccc1-c1cc2[nH]cnc2c(Nc2ccc(C(=O)N3CCOCC3)cc2)n1 | 80.3 | 0.025 | 51.9 | 16.5 | 24 | 32.7 | > 100 | 18.4 | 20.6 | 12.2 | 92.1 | 80.6 | inhibition [13]: Active; inhibition [14]: Active; inhibition [15]: inactive
Cc1c(NC(=O)c2ccccc2)cccc1-c1cc2[nH]cnc2c(Nc2ccc(C(=O)N3CCOCC3)cc2)n1 | 71.3 | 0.155 | 47 | > 16.6 | > 16.6 | > 16.6 | 68.2 | 20.1 | > 50 | > 50 | 85.2 | 65.3 | –
Cc1c(NC(=O)c2ccc(C(C)(C)C)cc2)cccc1-c1cc2c(ncn2C)c(Nc2ccc(C(=O)N3CCOCC3)cc2)n1 | 74.3 | 0.527 | > 100 | 12.2 | 17.7 | 57.3 | > 100 | 39.7 | 35.6 | 25.6 | 95.6 | 68.8 | –
C=CC(=O)N1CCC[C@H](n2nc(-c3ccc(Oc4ccccc4)cc3)c3c(N)ncnc32)C1 | 77.3 | – | 60.3 | – | – | – | 62.8 | – | – | – | 69.8 | 57.5 | GI50 [4]: > 4 µM; GI50 [5]: 3.3 µM; GI50 [6]: > 4 µM; GI50 [9]: > 4 µM; GI50 [10]: > 4 µM
